Results reported in patent US9120766B2, “Methods of making cocrystals” (Aptuit (West Lafayette), LLC, priority 2011, dated 2015).
≈ marks a conversion by molar mass, not a printed value.

What was measured:
[1] = physchem; conditions: thermodynamic from solid
[2] = literature; cited from earlier work
[3] = Solubility estimates at ambient temperature (gravimetric or incremental solvent addition); conditions: thermodynamic from solid
[4] = literature (López-Nicolás 2009); cited from earlier work

## CC(=O)[C@H]1CC[C@H]2[C@@H]3CCC4=CC(=O)CC[C@]4(C)[C@H]3CC[C@]12C [Progesterone, reference compound]
[1]; organic solvent or mixture
  solubility: 30 mg/mL (≈ 95.4 mM)

## NC(=O)c1cccnc1 [nicotinamide]
[1]; organic solvent or mixture
  solubility: 42 mg/mL (≈ 344 mM)

## COc1cc(/C=C/c2ccc(O)cc2)cc(OC)c1 [Pterostilbene]
[2]
  Bioavailability: poor bioavailability
[3]; ACN, organic solvent or mixture, solvent ACN, ambient temperature
  solubility: > 203 mg/mL
[3]; EtOAc, organic solvent or mixture, solvent EtOAc, ambient temperature
  solubility: > 201 mg/mL
[3]; EtOH, organic solvent or mixture, solvent EtOH, ambient temperature
  solubility: 410 mg/mL (≈ 1600 mM)
[3]; MEK, organic solvent or mixture, solvent MEK, ambient temperature (Table 1)
  solubility: > 200 mg/mL
[3]; MTBE, organic solvent or mixture, solvent MTBE, ambient temperature
  solubility: > 200 mg/mL
[3]; heptane, organic solvent or mixture, solvent Heptane, ambient temperature
  solubility: < 2 mg/mL
[3]; isopropanol/water with water content 70% and higher, aqueous with cosolvent or surfactant or cyclodextrin
  solubility: ≤ 2 mg/mL
[3]; isopropanol:water 40:60, aqueous with cosolvent or surfactant or cyclodextrin, 40:60 isopropanol to water mixture
  solubility: ~22 mg/mL (≈ 85.8 mM)
[3]; isopropyl alcohol (IPA), organic solvent or mixture, solvent IPA (isopropyl alcohol), ambient temperature
  solubility: 399 mg/mL (≈ 1560 mM)
[3]; water, solvent Water, ambient temperature
  solubility: 0.02 mg/mL (≈ 0.078 mM)
[3]; water:IPA 55:45, aqueous with cosolvent or surfactant or cyclodextrin, solvent Water:IPA 55:45, ambient temperature
  solubility: 22 mg/mL (≈ 85.8 mM)
[3]; water:IPA 60:40, aqueous with cosolvent or surfactant or cyclodextrin, solvent Water:IPA 60:40, ambient temperature
  solubility: 22 mg/mL (≈ 85.8 mM)
[3]; water:IPA 70:30, aqueous with cosolvent or surfactant or cyclodextrin, solvent Water:IPA 70:30, ambient temperature
  solubility: 2 mg/mL (≈ 7.8 mM)
[3]; water:ethanol 50:50 v/v, aqueous with cosolvent or surfactant or cyclodextrin, solvent system Water:ethanol 50:50 v/v, ambient temperature
  solubility: 54 mg/mL (≈ 211 mM)
[4]
  Solubility in water: poor solubility in water

## C1CNCCN1 [piperazine]
[1]; aqueous with cosolvent or surfactant or cyclodextrin
  solubility: > 324 mg/mL
